#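 Five concentrations, 48 hours, 96-well plates. GI50 marks 50% less growth.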 The source made the active and inactive calls. No stated cut-off is given here; in the data, active = GI50 up to about 1.1 µM and inactive = higher.
# Assays:
# Test in all cases: DTP human tumour cell line panel, 48 h
# OVCAR-3 = system: OVCAR-3
# SNB-19 = system: SNB-19
# K562 = system: K562
# HCT-15 = system: HCT-15
# 786-0 = system: 786-0
# COLO 205 = system: COLO 205
# U-251 = system: U-251
# RPMI-8226 = system: RPMI-8226
# KM12 = system: KM12
# HT-29 = system: HT-29
# SR = system: SR
# Hs-578T = system: Hs-578T
# NCI-H460 = system: NCI-H460
# HOP-92 = system: HOP-92
# SF-295 = system: SF-295
# SF-268 = system: SF-268
# SK-MEL-2 = system: SK-MEL-2
# SK-MEL-28 = system: SK-MEL-28
# NCI-H522 = system: NCI-H522
# MDA-MB-231 = system: MDA-MB-231
SMILES,GI50 (OVCAR-3),GI50 (SNB-19),GI50 (K562),GI50 (HCT-15) [µM],GI50 (786-0),GI50 (COLO 205),GI50 (U-251),GI50 (RPMI-8226),GI50 (KM12),GI50 (HT-29),GI50 (SR),GI50 (Hs-578T),GI50 (NCI-H460),GI50 (HOP-92),GI50 (SF-295),GI50 (SF-268),GI50 (SK-MEL-2),GI50 (SK-MEL-28),GI50 (NCI-H522),GI50 (MDA-MB-231)
CCOC(=O)/C(=C\NCC(OCC)OCC)c1nc2ccccc2[nH]1,22 µM (inactive),67.3 µM (inactive),22.8 µM (inactive),10,31.5 µM (inactive),16.5 µM (inactive),35.5 µM (inactive),18.7 µM (inactive),32.1 µM (inactive),22.4 µM (inactive),18.6 µM (inactive),35.6 µM (inactive),23.1 µM (inactive),35.6 µM (inactive),32.1 µM (inactive),32.6 µM (inactive),22.3 µM (inactive),26.8 µM (inactive),21.4 µM (inactive),
O=C1C=C2CC[C@H]3[C@@H]4CC[C@H](OC(=O)c5cccc6cc7ccccc7nc56)[C@H]4CC[C@@H]3[C@H]2CC1,39.5 µM (inactive),> 100 µM (inactive),40.1 µM (inactive),> 100,> 100 µM (inactive),> 100 µM (inactive),99.3 µM (inactive),93.3 µM (inactive),> 100 µM (inactive),> 100 µM (inactive),,> 100 µM (inactive),,,> 100 µM (inactive),> 100 µM (inactive),> 100 µM (inactive),> 100 µM (inactive),25.5 µM (inactive),50.1 µM (inactive)
O=C1c2ccccc2C2(c3ccc(F)cc3)NCCN12 (stereo not drawn),> 100 µM (inactive),> 100 µM (inactive),> 100 µM (inactive),> 100,> 100 µM (inactive),> 100 µM (inactive),> 100 µM (inactive),> 100 µM (inactive),> 100 µM (inactive),> 100 µM (inactive),,> 100 µM (inactive),> 100 µM (inactive),,> 100 µM (inactive),> 100 µM (inactive),> 100 µM (inactive),> 100 µM (inactive),> 100 µM (inactive),> 100 µM (inactive)
Cc1cc2c(cc1C)C(=O)/C(=C/c1ccccc1C(=O)O)C2,31.7 µM (inactive),34.7 µM (inactive),37.2 µM (inactive),36.6,40.3 µM (inactive),19.5 µM (inactive),22.9 µM (inactive),24.3 µM (inactive),55.5 µM (inactive),39.1 µM (inactive),21.2 µM (inactive),34 µM (inactive),40.5 µM (inactive),33.3 µM (inactive),32.5 µM (inactive),31.8 µM (inactive),35.4 µM (inactive),64.4 µM (inactive),65.6 µM (inactive),
